# Several values for one entry are separate records, joined by “and”; a condition that tells them apart may be missing. Identical values can stand only once. Counter-ions that a name gives are not always drawn.
# What was measured:
# D1 [1] = molecular target: T1, D1 (Homo sapiens, UniProt P21728); assay: D1 cAMP HTRF assay (HEK293T/hD1#1 stable cell line); type: cell-based; design: expressed in transfected cells
# Outline: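 Agonist-mode HTRF cAMP assay in HEK293T/hD1#1 stable cells resuspended in PBS with 0.5 μM IBMX; compound exposure 30 min at room temperature, then cAMP-D2 and anti-cAMP-cryptate detection for 1 h. EC50 from raw ratio data or from cAMP levels interpolated on a standard curve; percent effect versus controls.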
# D1 [2] = molecular target: T1, D1; assay: Human D1 receptor binding assay ([3H]-SCH23390 competition); settings: Human D1 Receptor Binding, Ki (nM), Geometric mean of 2-4 determinations, a: >=5 determinations, d: single determination
# Method: D1 binding assays were performed using over-expressing LTK human cell lines. […] These ligand and tissue concentrations were used in time course studies to determine linearity and equilibrium conditions for binding. Binding was at equilibrium with the specified amount of tissue in 30 minutes at 37° C. […] The pellet was resuspended in assay buffer (50 mM Tris (pH 7.4@ RT) containing 4 mM MgSO4 and 0.5 mM EDTA). […] After a 30 minute incubation period at 37° C., assay samples were rapidly filtered through Unifilter-96 GF/B PEI-coated filter plates and rinsed with 50 mM Tris buffer (pH 7.4 at 4° C.). […] Ki values were calculated according to the Cheng-Prusoff equation.
# T1 sequence (P21728 whole entry): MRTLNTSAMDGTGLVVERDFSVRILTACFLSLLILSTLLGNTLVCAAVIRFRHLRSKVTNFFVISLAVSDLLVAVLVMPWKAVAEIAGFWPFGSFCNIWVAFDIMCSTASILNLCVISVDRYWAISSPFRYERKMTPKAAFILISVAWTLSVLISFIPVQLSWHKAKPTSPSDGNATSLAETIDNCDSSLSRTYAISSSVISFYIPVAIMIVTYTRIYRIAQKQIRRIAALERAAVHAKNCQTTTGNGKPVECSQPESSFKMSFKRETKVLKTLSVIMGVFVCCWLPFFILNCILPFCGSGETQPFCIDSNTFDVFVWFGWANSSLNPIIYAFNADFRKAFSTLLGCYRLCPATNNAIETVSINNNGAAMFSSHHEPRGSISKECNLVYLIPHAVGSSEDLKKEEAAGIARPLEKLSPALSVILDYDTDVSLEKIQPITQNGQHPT
Compound,EC50 (D1 [1]),Ki (D1 [2]) [nM]
"COc1nc(C)c(-c2ccc(Oc3nccc4occc34)cc2C)n2ccnc12 [Example 107, 5-[4-(furo[3,2-c]pyridin-4-yloxy)-2-methylphenyl]-8-methoxy-6-methylimidazo[1,2-a]pyrazine]",669 nM,26.2
"Cc1ncnc(C)c1-c1ccc(Oc2nccc3occc23)cc1OCc1nc(C2CC2)no1 [Example 108, 4-{3-[(3-cyclopropyl-1,2,4-oxadiazol-5-yl)methoxy]-4-(4,6-dimethylpyrimidin-5-yl)phenoxy}furo[3,2-c]pyridine]",673 nM,55.5
"Cc1cc(Oc2nccc3occc23)ccc1-c1nc2nccn2cc1C [Example 111, 7-[4-(furo[3,2-c]pyridin-4-yloxy)-2-methylphenyl]-6-methylimidazo[1,2-a]pyrimidine]",335 nM,41.2
"COc1cc(Oc2nccc3occc23)ccc1-c1cc(N)cnc1C [Example 113, 5-[4-(furo[3,2-c]pyridin-4-yloxy)-2-methoxyphenyl]-6-methylpyridin-3-amine]",1020 nM,133
"Cc1ncnc(C)c1-c1c(F)cc(Oc2nccc3occc23)cc1F [Example 114, 4-[4-(4,6-dimethylpyrimidin-5-yl)-3,5-difluorophenoxy]furo[3,2-c]pyridine]",103 nM,21.2
"Cc1ncnc(C)c1-c1ccc(Oc2nccc3occc23)c2ccncc12 [Example 116, 8-(4,6-dimethylpyrimidin-5-yl)-5-(furo[3,2-c]pyridin-4-yloxy)isoquinoline]",3440 nM,481
"c1cc2occc2c(Oc2ccc(-c3nccc4occc34)cc2)n1 [Example 119, 4-[4-(furo[3,2-c]pyridin-4-yloxy)phenyl]furo[3,2-c]pyridine]",> 11200 nM,2240
"Cc1ncncc1-c1ccc(Oc2nccc3occc23)cc1C(C)(C)C#N [Example 122, 2-[5-(furo[3,2-c]pyridin-4-yloxy)-2-(4-methylpyrimidin-5-yl)phenyl]-2-methylpropanenitrile]",4590 nM,211
"Cc1cc(Oc2nccc3occc23)ccc1-c1cccc(=O)n1C [Example 126, 6-[4-(furo[3,2-c]pyridin-4-yloxy)-2-methylphenyl]-1-methylpyridin-2(1H)-one]",546 nM,39.9
"Cc1ncnc(C)c1-c1cc(F)c(Oc2nccc3occc23)c(F)c1 [Example 128, 4-[4-(4,6-dimethylpyrimidin-5-yl)-2,6-difluorophenoxy]furo[3,2-c]pyridine]",5480 nM,379
"Cc1cc(Oc2nccc3occc23)c(F)cc1-c1c(C)ncnc1C [Example 129, 4-[4-(4,6-dimethylpyrimidin-5-yl)-2-fluoro-5-methylphenoxy]furo[3,2-c]pyridine]",268 nM,32.3
"Cc1ncnc(C)c1-c1ccc(Oc2nccc3occc23)c(F)c1C [Example 131, 4-[4-(4,6-dimethylpyrimidin-5-yl)-2-fluoro-3-methylphenoxy]furo[3,2-c]pyridine]",1550 nM,135
"Cc1cc(Oc2nccc3occc23)ccc1-c1ccc(O)c2nccn12 [Example 137, 5-[4-(furo[3,2-c]pyridin-4-yloxy)-2-methylphenyl]imidazo[1,2-a]pyridin-8-ol]",209 nM,42
"Cc1ncnc(C)c1-c1cc(F)c(Oc2nccc3occc23)cc1F [Example 139, 4-[4-(4,6-dimethylpyrimidin-5-yl)-2,5-difluorophenoxy]furo[3,2-c]pyridine]",287 nM,119
"Cc1ncnc(C)c1-c1ccc(Oc2nccc3occc23)c(F)c1F [Example 141, 4-[4-(4,6-dimethylpyrimidin-5-yl)-2,3-difluorophenoxy]furo[3,2-c]pyridine]",298 nM,69.9
"Cc1ncnc(C)c1-c1ccc(Oc2nccc3occc23)c2cn(C)nc12 [Example 144, 4-{[7-(4,6-dimethylpyrimidin-5-yl)-2-methyl-2H-indazol-4-yl]oxy}furo[3,2-c]pyridine]",3490 nM,246
"Cc1ncnc(C)c1-c1ccc(Oc2nccc3occc23)c2cnn(C)c12 [Example 148, 4-{[7-(4,6-dimethylpyrimidin-5-yl)-1-methyl-1H-indazol-4-yl]oxy}furo[3,2-c]pyridine, trifluoroacetate salt]",777 nM,111
"Cc1cnnc(C)c1-c1ccc(Oc2nccc3occc23)cc1 [Example 150, 4-[4-(3,5-dimethylpyridazin-4-yl)phenoxy]furo[3,2-c]pyridine]",443 nM,67

# Continued, values first:
EC50 (D1 [1]),Ki (D1 [2]) [nM],Compound
392 nM and 870 nM,23.9,"Cc1cc(Oc2nccc3occc23)cc(C)c1-c1c(C)ncnc1C [Example 103, 4-[4-(4,6-dimethylpyrimidin-5-yl)-3,5-dimethylphenoxy]furo[3,2-c]pyridine]"
502 nM,24.1,"Cc1cc(Oc2nccc3occc23)ccc1-c1c(C)cncc1C [Example 104, 4-[4-(3,5-dimethylpyridin-4-yl)-3-methylphenoxy]furo[3,2-c]pyridine]"
429 nM,57.5,"Cc1cc(Oc2nccc3occc23)ccc1-c1c(C)nc(C)c2nccn12 [Example 109, 5-[4-(furo[3,2-c]pyridin-4-yloxy)-2-methylphenyl]-6,8-dimethylimidazo[1,2-a]pyrazine]"
33.8 nM,2.89,"Cc1cc(Oc2nccc3occc23)ccc1-c1c(C)cnc2nccn12 [Example 110, 5-[4-(furo[3,2-c]pyridin-4-yloxy)-2-methylphenyl]-6-methylimidazo[1,2-a]pyrimidine]"
156 nM,13.8,"Cc1cc(Oc2nccc3occc23)ccc1-c1c(C)nc(N)c2nccn12 [Example 112, 5-[4-(furo[3,2-c]pyridin-4-yloxy)-2-methylphenyl]-6-methylimidazo[1,2-a]pyrazin-8-amine]"
777 nM,194,"Cc1cc(Oc2nccc3occc23)ccc1-c1c(C)cnn2c(=O)[nH]nc12 [Example 115, 8-[4-(furo[3,2-c]pyridin-4-yloxy)-2-methylphenyl]-7-methyl[1,2,4]triazolo[4,3-b]pyridazin-3(2H)-one]"
452 nM,23.1,"Cc1cc(Oc2nccc3occc23)ccc1-c1c(C)nc(C)c(=O)n1C [Example 117, 6-[4-(furo[3,2-c]pyridin-4-yloxy)-2-methylphenyl]-1,3,5-trimethylpyrazin-2(1H)-one]"
> 30000 nM,> 986,"Cc1cc(Oc2nccc3occc23)ccc1-c1c(C)ncnc1C(=O)O [Example 118, 5-[4-(furo[3,2-c]pyridin-4-yloxy)-2-methylphenyl]-6-methylpyrimidine-4-carboxylic acid]"
188 nM,29.4,"Cc1cc(Oc2nccc3occc23)ccc1-c1c(C)cnc(=O)n1C [Example 124, 6-[4-(furo[3,2-c]pyridin-4-yloxy)-2-methylphenyl]-1,5-dimethylpyrimidin-2(1H)-one]"
91.7 nM,23,"Cc1cc(Oc2nccc3occc23)ccc1-c1cn[nH]c(=O)c1C [Example 125, 5-[4-(furo[3,2-c]pyridin-4-yloxy)-2-methylphenyl]-4-methylpyridazin-3(2H)-one]"
127 nM,14,"Cc1ncnc(C)c1-c1ccc(Oc2nccc3occc23)cc1Cl [Example 127, 4-[3-chloro-4-(4,6-dimethylpyrimidin-5-yl)phenoxy]furo[3,2-c]pyridine]"
1050 nM,73,"Cc1ncnc(C)c1-c1ccc(Oc2nccc3occc23)c(F)c1 [Example 130, 4-[4-(4,6-dimethylpyrimidin-5-yl)-2-fluorophenoxy]furo[3,2-c]pyridine]"
2260 nM,39.9,"Cc1cc(Nc2nccc3occc23)ccc1-c1c(C)ncnc1C [Example 132, N-[4-(4,6-dimethylpyrimidin-5-yl)-3-methylphenyl]furo[3,2-c]pyridin-4-amine, formate salt]"
172 nM,31.5,"Cc1cc(Oc2nccc3occc23)ccc1-c1c(C)c(O)nc2nccn12 [Example 133, 5-[4-(furo[3,2-c]pyridin-4-yloxy)-2-methylphenyl]-6-methylimidazo[1,2-a]pyrimidin-7-ol]"
2410 nM,225,"Cc1cc(Oc2nccc3occc23)ccc1-c1nc(O)cnc1C [Example 136, 6-[4-(furo[3,2-c]pyridin-4-yloxy)-2-methylphenyl]-5-methylpyrazin-2-ol]"
292 nM,48,"Cc1cnnc(C)c1-c1ccc(Oc2nccc3occc23)cc1F [Example 140, 4-[4-(3,5-dimethylpyridazin-4-yl)-3-fluorophenoxy]furo[3,2-c]pyridine]"
1440 nM,110,"Cc1cc(Oc2nccc3occc23)ccc1-c1ccnnc1C [Example 145, 4-[3-methyl-4-(3-methylpyridazin-4-yl)phenoxy]furo[3,2-c]pyridine]"
464 nM,31.4,"COc1nc(C)c(-c2ccc(Oc3nccc4occc34)cc2C)c(C)n1 [Example 149, 4-[4-(2-methoxy-4,6-dimethylpyrimidin-5-yl)-3-methylphenoxy]furo[3,2-c]pyridine]"
1120 nM,101,"Cc1cc(Oc2nccc3occc23)ccc1-c1c(C)cnnc1N(C)C [Example 151, 4-[4-(furo[3,2-c]pyridin-4-yloxy)-2-methylphenyl]-N,N,5-trimethylpyridazin-3-amine, trifluoroacetate salt]"
565 nM,79.5,"Cc1cc(Oc2nccc3occc23)ccc1-c1c(C)nc(O)nc1C [Example 152, 5-[4-(furo[3,2-c]pyridin-4-yloxy)-2-methylphenyl]-4,6-dimethylpyrimidin-2-ol]"

# — patent US20150291625A1 (PFIZER INC., priority 2012, published 2015)
